{
  "source": "patent US9937166B2",
  "about": "(INFLAMMATORY RESPONSE RESEARCH, INC., priority 2013, dated 2018)",
  "origin": "cited, not measured here",
  "key": {"[1]": {"test_system": "ALI/ARDS", "conditions": "in vivo"}, "[2]": {"test_system": "eosinophil migration"}, "[3]": {"test_system": "airway epithelial cells"}, "[4]": {"conditions": "in vivo"}, "[5]": {"test_system": "histamine induced wheal and flare"}, "[6]": {"target": "H1 receptor (Homo sapiens, UniProt P35367)", "sequence (P35367 whole entry)": "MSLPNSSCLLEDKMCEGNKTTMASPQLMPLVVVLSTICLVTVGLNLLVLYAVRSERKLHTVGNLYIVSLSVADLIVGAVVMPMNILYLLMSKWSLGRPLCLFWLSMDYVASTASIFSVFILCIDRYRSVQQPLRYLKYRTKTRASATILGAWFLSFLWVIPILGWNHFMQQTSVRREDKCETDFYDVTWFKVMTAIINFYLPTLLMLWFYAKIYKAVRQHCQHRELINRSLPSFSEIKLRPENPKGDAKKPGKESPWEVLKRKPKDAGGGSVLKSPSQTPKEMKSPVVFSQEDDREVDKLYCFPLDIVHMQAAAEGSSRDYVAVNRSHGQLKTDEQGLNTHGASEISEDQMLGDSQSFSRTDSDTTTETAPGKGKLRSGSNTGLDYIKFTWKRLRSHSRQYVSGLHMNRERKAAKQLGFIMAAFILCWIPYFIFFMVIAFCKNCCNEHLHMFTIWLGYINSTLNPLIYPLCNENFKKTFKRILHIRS", "conditions": "acidic pH, inflamed tissue"}, "[7]": {"test_system": "IL-4, IL-6, IL-8, ICAM-1, TLR3, NF-kappa B"}, "[8]": {"assay": "not given", "remark": "listed apart in the source"}, "[9]": {"conditions": "for Time to reach steady state level: administered orally"}, "[10]": {"test_system": "influenza", "conditions": "in vivo"}},
  "note": "Like-named read-outs stand apart in the source and are kept apart here.",
  "data": [
    {"smiles": "CC(=O)N[C@@H](CS)C(=O)O", "note": "[N-acetylcysteine]", "values": [
      {"measurement": "Outcome in large trials for ALI/ARDS", "setting": "[1]", "value": "failed"}
    ]},
    {"smiles": "CCCCC[C@H](O)/C=C/[C@H]1[C@H](O)CC(=O)[C@@H]1CCCCCCC(=O)O", "note": "[alprostadil]", "values": [
      {"measurement": "Outcome in large trials for ALI/ARDS", "setting": "[1]", "value": "failed"}
    ]},
    {"smiles": "CC(=O)N1CCN(c2ccc(OCC3COC(Cn4ccnc4)(c4ccc(Cl)cc4Cl)O3)cc2)CC1", "note": "(centres unmarked) [ketoconazole]", "values": [
      {"measurement": "Outcome in large trials for ALI/ARDS", "setting": "[1]", "value": "failed"}
    ]},
    {"smiles": "O=C(O)COCCN1CCN([C@H](c2ccccc2)c2ccc(Cl)cc2)CC1", "note": "[levocetirizine]", "values": [
      {"measurement": "Principal side effect experienced at higher doses", "setting": "higher doses", "value": "Sedation"},
      {"measurement": "Doses that can be safely administered", "setting": "humans", "value": "up to 30 mg/day"},
      {"measurement": "Eosinophil migration", "setting": "[2]", "value": "decrease"},
      {"measurement": "Rhinovirus-induced ICAM-1 and cytokine expression and viral replication", "setting": "[3]", "value": "inhibits"},
      {"measurement": "Steady-state level (time to)", "setting": "[4]", "value": 40, "unit": "h"},
      {"measurement": "Potency among the five modern generation antihistamines", "setting": "[5]; histamine induced wheal and flare data", "value": "most potent"},
      {"measurement": "Effectiveness compared with fexofenadine", "setting": "[5]; levocetirizine 5 mg per day vs fexofenadine 180 mg per day", "value": "more effective"},
      {"measurement": "Enhanced receptor affinity over first generation mepyramine / first generation molecules", "setting": "[6]", "value": "up to 5 ×"},
      {"measurement": "Enhanced receptor affinity over first generation mepyramine / first generation molecules", "setting": "[6]; listed as Levocetirizine", "value": 5, "unit": "×"},
      {"measurement": "Inflammatory mediators IL-4, IL-6, and IL-8", "setting": "[7]", "value": "decrease"},
      {"measurement": "ICAM-1, IL-6, IL-8, TLR3 expression and NF-kappa B activation", "setting": "[7]; in vivo (so in the source)", "value": "decrease"}
    ]},
    {"smiles": "C[C@@H](O)CCCCn1c(=O)c2c(ncn2C)n(C)c1=O", "note": "[lisofylline]", "values": [
      {"measurement": "Outcome in large trials for ALI/ARDS", "setting": "[1]", "value": "failed"}
    ]},
    {"smiles": "CC(C)(O)c1ccccc1CC[C@@H](SCC1(CC(=O)O)CC1)c1cccc(/C=C/c2ccc3ccc(Cl)cc3n2)c1", "note": "[montelukast]", "values": [
      {"measurement": "Doses without clinically important adverse experiences", "setting": "[8]; adult patients for 22 weeks", "value": "up to 200 mg/day"},
      {"measurement": "Doses without clinically important adverse experiences", "setting": "[8]; short-term studies, approximately one week", "value": "up to 900 mg/day"},
      {"measurement": "Plasma concentration area under the curve profile, IV vs oral tablet", "setting": "[9]; IV 7 mg vs approved 10 mg oral tablet", "value": "comparable"},
      {"measurement": "Time to reach steady state level", "setting": "[9]", "value": "two"},
      {"measurement": "Time to reach steady state level", "setting": "[9]; listed as Montelukast", "value": "less than two"},
      {"measurement": "Absorption", "setting": "[9]; in vivo", "value": "rapidly absorbed"},
      {"measurement": "Linear pharmacokinetics to dose", "setting": "[9]; in vivo", "value": "≤ 50", "unit": "mg"},
      {"measurement": "Time to peak plasma concentration", "setting": "[9]; in vivo", "value": "3 to 4", "unit": "h"},
      {"measurement": "Effect of a standard meal on oral bioavailability and C.", "setting": "[9]; standard meal", "value": "not affected"}
    ]},
    {"smiles": "CCOC(=O)C1=C[C@@H](OC(CC)CC)[C@H](NC(C)=O)[C@@H](N)C1", "note": "[oseltamivir]", "values": [
      {"measurement": "Influenza related lower respiratory tract complications", "setting": "[10]", "value": "did not appear to reduce"}
    ]},
    {"smiles": "O=C1N[C@H](C(=O)O)CS1", "note": "[procysteine]", "values": [
      {"measurement": "Outcome in large trials for ALI/ARDS", "setting": "[1]", "value": "failed"}
    ]}
  ]
}
